Test results as given in patent publication US12662479B2 (Foghorn Therapeutics Inc., priority 2020, dated 2026).

Legend:
[1] = target: T1, HiBit-BRG1 fusion protein (Homo sapiens, UniProt P51532); experiment: HiBiT-BRG1 cell-based degradation assay (Nano-Glo HiBiT Lytic Detection, 24 h); details: HeLa cells expressing HiBit-BRG1 and LgBit; for DC50: read-out: BRG1 HiBit Degradation IC50; for Dmax: HeLa, top dose 30 μM, read-out: BRG1 HiBit Degradation Maximum measured
T1 construct: expressed in transfected cells
T1 sequence (P51532 whole entry, the tested form may be a part): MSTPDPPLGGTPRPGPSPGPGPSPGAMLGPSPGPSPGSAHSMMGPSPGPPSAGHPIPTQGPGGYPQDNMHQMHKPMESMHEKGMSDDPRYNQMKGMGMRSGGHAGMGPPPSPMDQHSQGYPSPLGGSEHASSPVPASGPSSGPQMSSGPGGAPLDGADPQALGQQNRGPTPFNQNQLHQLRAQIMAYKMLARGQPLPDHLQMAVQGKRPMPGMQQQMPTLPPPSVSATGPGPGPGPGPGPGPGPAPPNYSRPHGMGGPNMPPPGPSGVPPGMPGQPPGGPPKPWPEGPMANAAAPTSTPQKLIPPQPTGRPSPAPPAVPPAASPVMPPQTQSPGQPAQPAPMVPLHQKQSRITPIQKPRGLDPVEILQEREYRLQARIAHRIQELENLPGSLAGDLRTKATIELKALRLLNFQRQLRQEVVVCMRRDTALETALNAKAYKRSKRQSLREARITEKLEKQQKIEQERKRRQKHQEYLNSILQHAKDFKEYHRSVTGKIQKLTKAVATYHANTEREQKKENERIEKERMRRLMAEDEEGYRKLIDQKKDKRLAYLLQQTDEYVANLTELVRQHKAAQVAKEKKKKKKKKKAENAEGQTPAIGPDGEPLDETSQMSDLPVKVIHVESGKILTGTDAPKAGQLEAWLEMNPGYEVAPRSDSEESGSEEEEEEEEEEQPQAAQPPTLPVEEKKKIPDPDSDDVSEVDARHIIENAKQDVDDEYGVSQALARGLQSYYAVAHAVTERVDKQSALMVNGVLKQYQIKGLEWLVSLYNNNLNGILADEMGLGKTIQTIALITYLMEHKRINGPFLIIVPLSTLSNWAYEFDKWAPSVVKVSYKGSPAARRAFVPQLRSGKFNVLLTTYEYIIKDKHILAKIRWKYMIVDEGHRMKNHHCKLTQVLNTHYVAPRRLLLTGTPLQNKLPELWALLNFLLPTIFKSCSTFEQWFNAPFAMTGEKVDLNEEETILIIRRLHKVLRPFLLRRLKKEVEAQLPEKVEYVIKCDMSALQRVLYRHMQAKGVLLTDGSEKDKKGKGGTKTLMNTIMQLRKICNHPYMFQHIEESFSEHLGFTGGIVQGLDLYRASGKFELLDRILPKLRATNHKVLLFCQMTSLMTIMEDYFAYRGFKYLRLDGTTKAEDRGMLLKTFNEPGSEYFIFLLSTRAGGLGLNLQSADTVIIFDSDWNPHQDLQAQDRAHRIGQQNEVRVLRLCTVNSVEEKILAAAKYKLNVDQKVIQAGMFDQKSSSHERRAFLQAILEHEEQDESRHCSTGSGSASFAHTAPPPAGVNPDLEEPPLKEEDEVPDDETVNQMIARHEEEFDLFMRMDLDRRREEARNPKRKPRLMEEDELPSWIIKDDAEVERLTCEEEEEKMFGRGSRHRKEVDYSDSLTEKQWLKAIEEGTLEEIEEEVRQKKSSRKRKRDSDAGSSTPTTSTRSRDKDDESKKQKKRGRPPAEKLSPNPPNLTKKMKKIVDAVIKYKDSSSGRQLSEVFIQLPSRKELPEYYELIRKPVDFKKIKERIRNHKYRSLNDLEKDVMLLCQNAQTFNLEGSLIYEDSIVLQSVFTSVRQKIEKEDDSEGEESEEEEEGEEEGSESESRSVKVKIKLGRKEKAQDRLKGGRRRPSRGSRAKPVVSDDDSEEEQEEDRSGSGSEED
Method: Procedure: A stable HeLa cell line expressing HiBiT-BRM was generated. On day 0, 5000 cells were seeded in 40 μL of media into each well of 384-well cell culture plates. […] Nano-Glo HiBiT Lytic Detection System (Promega N3050) reagent was freshly prepared and 20 ul was added to each well. Upon addition of this LgBit-containing reagent, the HiBiT and LgBiT proteins associate to form the luminescent NanoBiT luciferase. The plates were shaken for 10 minutes at room temperature and the bioluminescence read using an EnVision plate reader (PerkinElmer).
For measurement of BRG1 degradation, a stable HeLa cell line expressing HiBit-BRG1 and LgBit was generated. The same protocol as above was then followed.
(§1) The degradation % was calculated using the following formula: % degradation=100%−100%×(LumSample−LumLC)/(LumHC−LumLC). DMSO treated cells are employed as High Control (HC) and 2 μM of a known BRM/BRG1 degrader standard treated cells are employed as Low Control (LC).

[2] = target: T2, HiBit-BRM fusion protein (Homo sapiens, UniProt P51531); experiment: HiBiT-BRM cell-based degradation assay (Nano-Glo HiBiT Lytic Detection, 24 h); details: HeLa cells expressing HiBiT-BRM; for DC50: read-out: BRM HiBit Degradation IC50; for BRM HiBit Degradation Maximum measured: top dose 30 μM
T2 construct: expressed in transfected cells
T2 sequence (P51531 whole entry, the tested form may be a part): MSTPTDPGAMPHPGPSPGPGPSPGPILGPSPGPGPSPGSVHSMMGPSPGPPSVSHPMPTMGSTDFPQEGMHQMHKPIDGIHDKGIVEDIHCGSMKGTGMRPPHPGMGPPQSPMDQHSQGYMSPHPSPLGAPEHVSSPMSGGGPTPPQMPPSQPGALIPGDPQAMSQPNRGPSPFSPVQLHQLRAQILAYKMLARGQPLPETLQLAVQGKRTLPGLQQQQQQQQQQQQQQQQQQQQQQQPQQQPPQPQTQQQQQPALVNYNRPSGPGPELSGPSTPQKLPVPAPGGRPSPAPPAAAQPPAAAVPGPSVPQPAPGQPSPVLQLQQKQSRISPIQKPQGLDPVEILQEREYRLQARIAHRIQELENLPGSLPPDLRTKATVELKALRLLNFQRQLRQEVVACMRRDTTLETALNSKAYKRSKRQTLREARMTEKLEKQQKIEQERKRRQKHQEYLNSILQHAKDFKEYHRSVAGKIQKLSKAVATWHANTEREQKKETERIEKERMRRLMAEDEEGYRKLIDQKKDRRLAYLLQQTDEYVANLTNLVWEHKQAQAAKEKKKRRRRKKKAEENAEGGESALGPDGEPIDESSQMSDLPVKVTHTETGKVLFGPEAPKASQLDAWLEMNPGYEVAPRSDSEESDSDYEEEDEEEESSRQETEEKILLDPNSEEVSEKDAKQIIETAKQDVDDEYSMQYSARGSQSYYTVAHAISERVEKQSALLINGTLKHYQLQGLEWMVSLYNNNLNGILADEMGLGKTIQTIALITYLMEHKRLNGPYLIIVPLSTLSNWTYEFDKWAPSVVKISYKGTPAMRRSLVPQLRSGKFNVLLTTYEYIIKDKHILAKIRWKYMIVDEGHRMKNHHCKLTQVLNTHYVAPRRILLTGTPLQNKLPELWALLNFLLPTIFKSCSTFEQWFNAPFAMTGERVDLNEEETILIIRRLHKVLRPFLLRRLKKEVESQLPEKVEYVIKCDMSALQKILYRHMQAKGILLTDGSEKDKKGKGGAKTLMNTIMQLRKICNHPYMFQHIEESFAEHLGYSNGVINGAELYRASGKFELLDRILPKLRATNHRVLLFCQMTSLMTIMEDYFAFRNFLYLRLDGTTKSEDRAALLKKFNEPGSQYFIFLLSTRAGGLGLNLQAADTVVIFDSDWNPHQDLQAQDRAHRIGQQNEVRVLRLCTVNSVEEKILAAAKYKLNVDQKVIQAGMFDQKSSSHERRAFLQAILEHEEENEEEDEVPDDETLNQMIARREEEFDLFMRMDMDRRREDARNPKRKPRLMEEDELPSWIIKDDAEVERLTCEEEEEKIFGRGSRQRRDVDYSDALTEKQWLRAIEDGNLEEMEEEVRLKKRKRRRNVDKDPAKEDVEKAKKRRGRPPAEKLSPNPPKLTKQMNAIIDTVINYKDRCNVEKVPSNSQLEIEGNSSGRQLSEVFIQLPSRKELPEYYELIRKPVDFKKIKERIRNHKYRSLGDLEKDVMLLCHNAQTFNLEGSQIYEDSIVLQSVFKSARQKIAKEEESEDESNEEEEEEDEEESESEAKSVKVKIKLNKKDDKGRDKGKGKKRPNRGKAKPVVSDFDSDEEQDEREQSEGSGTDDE
Method: Procedure: A stable HeLa cell line expressing HiBiT-BRM was generated. On day 0, 5000 cells were seeded in 40 μL of media into each well of 384-well cell culture plates. On day 1, cells were treated with 120 nL DMSO or 120 nL of 3-fold serially DMSO-diluted compounds (10 points in duplicate with 30 μM as final top dose). Subsequently plates were incubated for 24 h in a standard tissue culture incubator and equilibrated at room temperature for 15 minutes. Nano-Glo HiBiT Lytic Detection System (Promega N3050) reagent was freshly prepared and 20 ul was added to each well. Upon addition of this LgBit-containing reagent, the HiBiT and LgBiT proteins associate to form the luminescent NanoBiT luciferase. The plates were shaken for 10 minutes at room temperature and the bioluminescence read using an EnVision plate reader (PerkinElmer).
as §1

Row | DC50 [1] [µM] | Dmax [1] [%] | DC50 [2] [µM] | BRM HiBit Degradation Maximum measured [2] | Compound
1 | > 10 | < 50 | > 10 | C (‘C’ = Maximum degradation <50%) | CS(=O)(=O)n1ccc(C(=O)NCC(=O)Nc2nc(-c3cccc(-c4ccnc(N5CCN(C(=O)C6CC6CNC(=O)COc6cccc7c6C(=O)N(C6CCC(=O)NC6=O)C7=O)CC5)c4)c3)cs2)c1 (centres unmarked) [Compound 32, N-[2-[[4-[3-[2-[4-[2-[[[2-[2-(2,6-dioxo-3-piperidyl)-1,3-dioxo-isoindolin-4-yl]oxyacetyl]amino]methyl]cyclopropanecarbonyl]piperazin-1-yl]-4-pyridyl]phenyl]thiazol-2-yl]amino]-2-oxo-ethyl]-1-methylsulfonyl-pyrrole-3-carboxamide]
2 | > 10 | < 50 | > 10 | C (‘C’ = Maximum degradation <50%) | CS(=O)(=O)n1ccc(C(=O)NCC(=O)Nc2nc(-c3cccc(-c4ccnc(N5CCN(C(=O)CCCOc6cccc7c6C(=O)N(C6CCC(=O)NC6=O)C7=O)CC5)c4)c3)cs2)c1 (centres unmarked) [Compound 33, N-[2-[[4-[3-[2-[4-[4-[2-(2,6-dioxo-3-piperidyl)-1,3-dioxo-isoindolin-4-yl]oxybutanoyl]piperazin-1-yl]-4-pyridyl]phenyl]thiazol-2-yl]amino]-2-oxo-ethyl]-1-methylsulfonyl-pyrrole-3-carboxamide]
3 | < 0.1 | > 75 | 0.1 to 1 | A (‘A’ = Maximum degradation >75%) | CS(=O)(=O)n1ccc(C(=O)NCC(=O)Nc2nc(-c3cccc(-c4ccnc(N5CCN(C(=O)CCCCCCCCCCNc6ccc7c(c6)C(=O)N(C6CCC(=O)NC6=O)C7=O)CC5)c4)c3)cs2)c1 (centres unmarked) [Compound 35, N-[2-[[4-[3-[2-[4-[11-[[2-(2,6-dioxo-3-piperidyl)-1,3-dioxo-isoindolin-5-yl]amino]undecanoyl]piperazin-1-yl]-4-pyridyl]phenyl]thiazol-2-yl]amino]-2-oxo-ethyl]-1-methylsulfonyl-pyrrole-3-carboxamide]
4 | > 10 | < 50 | > 10 | C (‘C’ = Maximum degradation <50%) | CS(=O)(=O)n1ccc(C(=O)NCC(=O)Nc2nc(-c3cccc(-c4ccnc(OCCNC(=O)CCCOc5cccc6c5C(=O)N(C5CCC(=O)NC5=O)C6=O)c4)c3)cs2)c1 (centres unmarked) [Compound 36, N-[2-[[4-[3-[2-[2-[4-[2-(2,6-dioxo-3-piperidyl)-1,3-dioxo-isoindolin-4-yl]oxybutanoylamino]ethoxy]-4-pyridyl]phenyl]thiazol-2-yl]amino]-2-oxo-ethyl]-1-methylsulfonyl-pyrrole-3-carboxamide]
5 | > 10 | < 50 | > 10 | C (‘C’ = Maximum degradation <50%) | CS(=O)(=O)n1ccc(C(=O)NCC(=O)Nc2nc(-c3cccc(-c4ccnc(OCCNC(=O)C5CC5CNC(=O)COc5cccc6c5C(=O)N(C5CCC(=O)NC5=O)C6=O)c4)c3)cs2)c1 (centres unmarked) [Compound 37, N-[2-[[4-[3-[2-[2-[[2-[[[2-[2-(2,6-dioxo-3-piperidyl)-1,3-dioxoisoindolin-4-yl]oxyacetyl]amino]methyl]cyclopropanecarbonyl]amino]ethoxy]-4-pyridyl]phenyl]thiazol-2-yl]amino]-2-oxoethyl]-1-methylsulfonyl-pyrrole-3-carboxamide]
6 | 0.1 to 1 | > 75 | > 10 | C (‘C’ = Maximum degradation <50%) | CS(=O)(=O)n1ccc(C(=O)NCC(=O)Nc2nc(-c3cccc(-c4ccnc(OCCNC(=O)CCOCCOCCOc5ccc6c(c5)C(=O)N(C5CCC(=O)NC5=O)C6=O)c4)c3)cs2)c1 (centres unmarked) [Compound 38, N-(2-((4-(3-(2-(2-(3-(2-(2-((2-(2,6-dioxopiperidin-3-yl)-1,3-dioxoisoindolin-5-yl)oxy)ethoxy)ethoxy)propanamido)ethoxy)pyridin-4-yl)phenyl)thiazol-2-yl)amino)-2-oxoethyl)-1-(methylsulfonyl)-1H-pyrrole-3-carboxamide]
7 | > 10 | < 50 | > 10 | C (‘C’ = Maximum degradation <50%) | CS(=O)(=O)n1ccc(C(=O)NCC(=O)Nc2nc(-c3cccc(-c4ccnc(N5CCN(C(=O)C6CC6CNC(=O)COc6ccc7c(c6)C(=O)N(C6CCC(=O)NC6=O)C7=O)CC5)c4)c3)cs2)c1 (centres unmarked) [Compound 39, N-[2-[[4-[3-[2-[4-[2-[[[2-[2-(2,6-dioxo-3-piperidyl)-1,3-dioxo-isoindolin-5-yl]oxyacetyl]amino]methyl]cyclopropanecarbonyl]piperazin-1-yl]-4-pyridyl]phenyl]thiazol-2-yl]amino]-2-oxo-ethyl]-1-methylsulfonyl-pyrrole-3-carboxamide]
8 | < 0.1 | > 75 | < 0.1 | A (‘A’ = Maximum degradation >75%) | CS(=O)(=O)n1ccc(C(=O)NCC(=O)Nc2nc(-c3cccc(-c4ccnc(N5CCN(C(=O)CCOCCOCCNc6ccc7c(c6)C(=O)N(C6CCC(=O)NC6=O)C7=O)CC5)c4)c3)cs2)c1 (centres unmarked) [Compound 40, N-(2-((4-(3-(2-(4-(3-(2-(2-((2-(2,6-dioxopiperidin-3-yl)-1,3-dioxoisoindolin-5-yl)amino)ethoxy)ethoxy)propanoyl)piperazin-1-yl)pyridin-4-yl)phenyl)thiazol-2-yl)amino)-2-oxoethyl)-1-(methylsulfonyl)-1H-pyrrole-3-carboxamide]
9 | > 10 | < 50 | > 10 | C (‘C’ = Maximum degradation <50%) | Cc1c(C(=O)NCC(=O)Nc2nc(-c3cccc(-c4ccnc(N(C)CC(=O)NCCCCCCCCNC(=O)COc5cccc6c5C(=O)N(C5CCC(=O)NC5=O)C6=O)c4)c3)cs2)cn(S(C)(=O)=O)c1C (centres unmarked) [Compound 41, N-[2-[[4-[3-[2-[[2-[8-[[2-[2-(2,6-dioxo-3-piperidyl)-1,3-dioxo-isoindolin-4-yl]oxyacetyl]amino]octylamino]-2-oxo-ethyl]-methyl-amino]-4-pyridyl]phenyl]thiazol-2-yl]amino]-2-oxo-ethyl]-4,5-dimethyl-1-methylsulfonyl-pyrrole-3-carboxamide]
10 | 0.1 to 1 | 50 to 75 | > 10 | C (‘C’ = Maximum degradation <50%) | CS(=O)(=O)n1ccc(C(=O)NCC(=O)Nc2nc(-c3cccc(-c4cccc(CNC(=O)CCOCCOCCNc5cccc6c5C(=O)N(C5CCC(=O)NC5=O)C6=O)c4)c3)cs2)c1 (centres unmarked) [Compound 42, N-(2-((4-(3′-((3-(2-(2-((2-(2,6-dioxopiperidin-3-yl)-1,3-dioxoisoindolin-4-yl)amino)ethoxy)ethoxy)propanamido)-methyl)-[1,1′-biphenyl]-3-yl)thiazol-2-yl)amino)-2-oxoethyl)-1-(methylsulfonyl)-1H-pyrrole-3-carboxamide]

Row | Compound | DC50 [1] [µM] | Dmax [1] [%] | DC50 [2] [µM] | BRM HiBit Degradation Maximum measured [2]
11 | CS(=O)(=O)n1ccc(C(=O)NCC(=O)Nc2nc(-c3cccc(-c4ccnc(N5CCN(C(=O)CCOCCOCCOc6cccc7c6C(=O)N(C6CCC(=O)NC6=O)C7=O)CC5)c4)c3)cs2)c1 (centres unmarked) [Compound 34, N-(2-((4-(3-(2-(4-(3-(2-(2-((2-(2,6-dioxopiperidin-3-yl)-1,3-dioxoisoindolin-4-yl)oxy)ethoxy)ethoxy)propanoyl)piperazin-1-yl)pyridin-4-yl)phenyl)thiazol-2-yl)amino)-2-oxoethyl)-1-(methylsulfonyl)-1H-pyrrole-3-carboxamide] | 0.1 to 1 | 50 to 75 | 0.1 to 1 | B (‘B’ = Maximum degradation ≥50% and ≤75%)
